Reference: patent publication US20120130117A1, “AROMATIC SULFONIUM SALT COMPOUND” (ADEKA CORPORATION, priority 2009, published 2012)

Experiment: Solubility in polyvinylphenol/tetramethylammonium hydroxide (TMAH) aqueous solution
Assay type: physicochemical
Settings: mass ratio of compound to polyvinylphenol in saturated solution; polyvinylphenol in 3% TMAH aqueous solution; visual check, left to stand one day
Protocol: In a screw-top tube were put 0.36 g of polyvinylphenol (S-2P from Maruzen Petrochemical Co., Ltd.; Mw: 5800) and 10.00 g of a 3% TMAH aqueous solution and heated to dissolve. A 2.00 g portion of the resulting solution was put in another screw-top tube, and a small amount of each of the trifluoromethanesulfonate of each of compound Nos. 1 and 5 and comparative compound No. 1 (intermediate No. 4 obtained in step 1 of Example 1-4) was added thereto and heated. A visual check was made to see whether the compound dissolved. This operation was repeated until saturation. The saturated solution was allowed to stand one day to make sure that no solid precipitated. The mass ratio of each compound to the polyvinylphenol of the saturated solution was taken as a parameter of solubility.
In the case of `O=C(c1ccccc1)c1ccc(Sc2ccc([S+](c3ccc(O)cc3)c3ccc(O)cc3)cc2)c(F)c1`, the “Solubility (%)” value is reported as 70%.
For `O=C(c1ccc(O)cc1)c1ccc(Sc2ccc([S+](c3ccc(F)cc3)c3ccc(F)cc3)cc2)c(F)c1`, the “Solubility (%)” value was 28%.
`O=C(c1ccccc1)c1ccc(Sc2ccc([S+](c3ccc(F)cc3)c3ccc(F)cc3)cc2)c(F)c1` [Comp. Compound No. 1, reference compound] showed a Solubility (%) of under 1%.
